This passage reports IC50 results from patent US7943770B2, “Fused quinoline derivative and use thereof” (Takeda Pharmaceutical Company Limited, priority 2004, dated 2011).

For the test, the target named is T1, hNK2 receptor (Homo sapiens, UniProt P21452).
T1 construct: host or cells: CHO cells
T1 sequence (P21452 1-398): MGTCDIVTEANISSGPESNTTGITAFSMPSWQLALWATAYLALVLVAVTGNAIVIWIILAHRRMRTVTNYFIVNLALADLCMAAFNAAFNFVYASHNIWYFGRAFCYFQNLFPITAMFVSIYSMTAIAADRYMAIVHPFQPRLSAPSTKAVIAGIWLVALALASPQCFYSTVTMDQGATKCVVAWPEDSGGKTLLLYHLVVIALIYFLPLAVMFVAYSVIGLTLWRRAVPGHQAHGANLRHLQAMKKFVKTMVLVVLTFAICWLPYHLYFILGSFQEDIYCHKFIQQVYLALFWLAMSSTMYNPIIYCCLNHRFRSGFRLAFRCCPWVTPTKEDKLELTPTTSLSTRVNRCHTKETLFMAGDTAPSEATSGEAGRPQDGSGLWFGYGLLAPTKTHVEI
The test can be described thus: Radio-ligand ([125I]-NKA) receptor binding inhibitory activity using membrane fraction of hNK2 receptor-expressing CHO cell. The settings on record: membrane fraction of hNK2 receptor-expressing CHO cells, 25° C., 30 min. In outline:
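Membranes from hNK2-expressing CHO cells (20 μg/mL suspension) incubated with test compound and [125I]-NKA ([…] solution as added) in Tris-HCl pH 7.4 with BSA, protease inhibitors, 3 mM MnCl2, 25 °C, 30 min. Bound radioactivity by GF/C filtration and scintillation; inhibition expressed relative to specific binding (total minus unlabeled-NKA non-specific).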
The IC50 is the concentration needed to halve the response being measured. A lower IC50 goes with greater potency in that assay. As to `O=C(N[C@@H]1CCCC[C@@H]1C(=O)N1CC[C@@H]2[C@H](c3ccccc3)Nc3ccccc3[C@@H]21)c1ccc2ccccc2c1` [Example 107, N-((1R,2S)-2-{[(3aR,4R,9bR)-4-Phenyl-2,3,3a,4,5,9b-hexahydro-1H-pyrrolo[3,2-c]quinolin-1-yl]carbonyl}cyclohexyl)-2-naphthamide], the 50% inhibitory concentration (IC50) is under 1 nM. For the compound `CCOC(=O)CCC(=O)N[C@@H]1CCCC[C@@H]1C(=O)N1CC[C@@H]2[C@H](c3ccccc3)Nc3ccccc3[C@@H]21` [Example 108], the half-inhibitory concentration (IC50) was under 10 nM. In the case of `O=C(CCCCCBr)N[C@@H]1CCCC[C@@H]1C(=O)N1CC[C@@H]2[C@H](c3ccccc3)Nc3ccccc3[C@@H]21` [Example 109, 6-Bromo-N-((1R,2S)-2-{[(3aR,4R,9bR)-4-phenyl-2,3,3a,4,5,9b-hexahydro-1H-pyrrolo[3,2-c]quinolin-1-yl]carbonyl}cyclohexyl)hexanamide] it was under 10 nM. The result for `O=C(N[C@@H]1CCCC[C@@H]1C(=O)N1CC[C@@H]2[C@H](c3ccccc3)Nc3ccccc3[C@@H]21)c1ccc(Cl)cc1` [Example 114, 4-Chloro-N-((1R,2S)-2-{[(3aR,4R,9bR)-4-phenyl-2,3,3a,4,5,9b-hexahydro-1H-pyrrolo[3,2-c]quinolin-1-yl]carbonyl}cyclohexyl)benzamide] reads under 10 nM. The result for `COC(=O)CCCCC(=O)N[C@@H]1CCCC[C@@H]1C(=O)N1CC[C@@H]2[C@H](c3ccccc3)Nc3ccccc3[C@@H]21` [Example 116, Methyl 6-oxo-6-[((1R,2S)-2-{[(3aR,4R,9bR)-4-phenyl-2,3,3a,4,5,9b-hexahydro-1H-pyrrolo[3,2-c]quinolin-1-yl]carbonyl}cyclohexyl)amino]hexanoate] reads under 10 nM. As for `O=C(CCCCCN1CCOCC1)N[C@@H]1CCCC[C@@H]1C(=O)N1CC[C@@H]2[C@H](c3ccccc3)Nc3ccccc3[C@@H]21` [Example 117, 6-Morpholin-4-yl-N-((1R,2S)-2-{[(3aR,4R,9bR)-4-phenyl-2,3,3a,4,5,9b-hexahydro-1H-pyrrolo[3,2-c]quinolin-1-yl]carbonyl}cyclohexyl)hexanamide], the IC50 is under 10 nM. `O=C(CCCCCO)N[C@@H]1CCCC[C@@H]1C(=O)N1CC[C@@H]2[C@H](c3ccccc3)Nc3ccccc3[C@@H]21` [Example 119, 6-Hydroxy-N-((1R,2S)-2-{[(3aR,4R,9bR)-4-phenyl-2,3,3a,4,5,9b-hexahydro-1H-pyrrolo[3,2-c]quinolin-1-yl]carbonyl}cyclohexyl)hexanamide] had a 50% inhibitory concentration (IC50) of under 10 nM.

On to `O=C(N[C@@H]1CCCC[C@@H]1C(=O)N1CC[C@@H]2[C@H](c3ccccc3)Nc3ccccc3[C@@H]21)c1ccc(CO)cc1` [Example 120, 4-(Hydroxymethyl)-N-((1R,2S)-2-{[(3aR,4R,9bR)-4-phenyl-2,3,3a,4,5,9b-hexahydro-1H-pyrrolo[3,2-c]quinolin-1-yl]carbonyl}cyclohexyl)benzamide], for which the 50% inhibitory concentration (IC50) was under 10 nM. In the case of `O=C(N[C@@H]1CCCC[C@@H]1C(=O)N1CC[C@@H]2[C@H](c3ccccc3)Nc3ccccc3[C@@H]21)c1cnccn1` [Example 127, N-((1R,2S)-2-{[(3aR,4R,9bR)-4-Phenyl-2,3,3a,4,5,9b-hexahydro-1H-pyrrolo[3,2-c]quinolin-1-yl]carbonyl}cyclohexyl)pyrazine-2-carboxamide] it was under 10 nM; in that of `O=C(/C=C/c1c[nH]cn1)N[C@@H]1CCCC[C@@H]1C(=O)N1CC[C@@H]2[C@H](c3ccccc3)Nc3ccccc3[C@@H]21` [Example 128, (2E)-3-(1H-Imidazol-4-yl)-N-((1R,2S)-2-{[(3aR,4R,9bR)-4-phenyl-2,3,3a,4,5,9b-hexahydro-1H-pyrrolo[3,2-c]quinolin-1-yl]carbonyl}cyclohexyl)acrylamide], under 10 nM; in that of `O=C(N[C@@H]1CCCC[C@@H]1C(=O)N1CC[C@@H]2[C@H](c3ccccc3)Nc3ccccc3[C@@H]21)c1ncc[nH]1` [Example 129, N-((1R,2S)-2-{[(3aR,4R,9bR)-4-Phenyl-2,3,3a,4,5,9b-hexahydro-1H-pyrrolo[3,2-c]quinolin-1-yl]carbonyl}cyclohexyl)-1H-imidazole-2-carboxamide], under 10 nM. In the case of `Cn1ccnc1C(=O)N[C@@H]1CCCC[C@@H]1C(=O)N1CC[C@@H]2[C@H](c3ccccc3)Nc3ccccc3[C@@H]21` [Example 132, 1-Methyl-N-((1R,2S)-2-{[(3aR,4R,9bR)-4-phenyl-2,3,3a,4,5,9b-hexahydro-1H-pyrrolo[3,2-c]quinolin-1-yl]carbonyl}cyclohexyl)-1H-imidazole-2-carboxamide] it was under 10 nM. The result for `O=C(N[C@@H]1CCCC[C@@H]1C(=O)N1CC[C@@H]2[C@H](c3ccccc3)Nc3ccccc3[C@@H]21)c1ccc2[nH]cnc2c1` [Example 133, N-((1R,2S)-2-{[(3aR,4R,9bR)-4-Phenyl-2,3,3a,4,5,9b-hexahydro-1H-pyrrolo[3,2-c]quinolin-1-yl]carbonyl}cyclohexyl)-1H-benzimidazole-5-carboxamide] reads under 1 nM; that for `O=C(/C=C/c1ncc[nH]1)N[C@@H]1CCCC[C@@H]1C(=O)N1CC[C@@H]2[C@H](c3ccccc3)Nc3ccccc3[C@@H]21` [Example 134, (2E)-3-(1H-Imidazol-2-yl)-N-((1R,2S)-2-{[(3aR,4R,9bR)-4-phenyl-2,3,3a,4,5,9b-hexahydro-1H-pyrrolo[3,2-c]quinolin-1-yl]carbonyl}cyclohexyl)acrylamide], under 1 nM.

The compound `O=C(Nc1ccccc1)N[C@@H]1CCCC[C@@H]1C(=O)N1CC[C@@H]2[C@H](c3ccccc3)Nc3ccccc3[C@@H]21` [Example 135, N-phenyl-N′-((1R,2S)-2-{[(3aR,4R,9bR)-4-phenyl-2,3,3a,4,5,9b-hexahydro-1H-pyrrolo[3,2-c]quinolin-1-yl]carbonyl}cyclohexyl)urea] gave an IC50 of under 1 nM. The result for `O=C(Nc1ccc(Cl)cc1)N[C@@H]1CCCC[C@@H]1C(=O)N1CC[C@@H]2[C@H](c3ccccc3)Nc3ccccc3[C@@H]21` [Example 136, N-(4-Chlorophenyl)-N′-((1R,2S)-2-{[(3aR,4R,9bR)-4-phenyl-2,3,3a,4,5,9b-hexahydro-1H-pyrrolo[3,2-c]quinolin-1-yl]carbonyl}cyclohexyl)urea] reads under 10 nM; that for `COc1ccc(NC(=O)N[C@@H]2CCCC[C@@H]2C(=O)N2CC[C@@H]3[C@H](c4ccccc4)Nc4ccccc4[C@@H]32)cc1` [Example 137, N-(4-Methoxyphenyl)-N′-((1R,2S)-2-{[(3aR,4R,9bR)-4-phenyl-2,3,3a,4,5,9b-hexahydro-1H-pyrrolo[3,2-c]quinolin-1-yl]carbonyl}cyclohexyl)urea], under 1 nM; that for `Cc1ccc(NC(=O)N[C@@H]2CCCC[C@@H]2C(=O)N2CC[C@@H]3[C@H](c4ccccc4)Nc4ccccc4[C@@H]32)cc1` [Example 138, N-(4-Methylphenyl)-N′-((1R,2S)-2-{[(3aR,4R,9bR)-4-phenyl-2,3,3a,4,5,9b-hexahydro-1H-pyrrolo[3,2-c]quinolin-1-yl]carbonyl}cyclohexyl)urea], under 1 nM. `O=C(Nc1ccc(F)cc1)N[C@@H]1CCCC[C@@H]1C(=O)N1CC[C@@H]2[C@H](c3ccccc3)Nc3ccccc3[C@@H]21` [Example 139, N-(4-Fluorophenyl)-N′-((1R,2S)-2-{[(3aR,4R,9bR)-4-phenyl-2,3,3a,4,5,9b-hexahydro-1H-pyrrolo[3,2-c]quinolin-1-yl]carbonyl}cyclohexyl)urea] returned a concentration for half-maximal inhibition (IC50) of under 1 nM. As for `O=C(Nc1ccc(C(F)(F)F)cc1)N[C@@H]1CCCC[C@@H]1C(=O)N1CC[C@@H]2[C@H](c3ccccc3)Nc3ccccc3[C@@H]21` [Example 140, N-((1R,2S)-2-{[(3aR,4R,9bR)-4-Phenyl-2,3,3a,4,5,9b-hexahydro-1H-pyrrolo[3,2-c]quinolin-1-yl]carbonyl}cyclohexyl)-N′-[4-(trifluoromethyl)phenyl]urea], the IC50 was under 10 nM. Turning to `O=C(Nc1cccc(Cl)c1)N[C@@H]1CCCC[C@@H]1C(=O)N1CC[C@@H]2[C@H](c3ccccc3)Nc3ccccc3[C@@H]21` [Example 141, N-(3-Chlorophenyl)-N′-((1R,2S)-2-{[(3aR,4R,9bR)-4-phenyl-2,3,3a,4,5,9b-hexahydro-1H-pyrrolo[3,2-c]quinolin-1-yl]carbonyl}cyclohexyl)urea], the 50% inhibitory concentration (IC50) was under 10 nM. In the case of `O=C(NCc1ccccc1)N[C@@H]1CCCC[C@@H]1C(=O)N1CC[C@@H]2[C@H](c3ccccc3)Nc3ccccc3[C@@H]21` [Example 143, N-Benzyl-N′-((1R,2S)-2-{[(3aR,4R,9bR)-4-phenyl-2,3,3a,4,5,9b-hexahydro-1H-pyrrolo[3,2-c]quinolin-1-yl]carbonyl}cyclohexyl)urea] it was under 10 nM; in that of `COc1ccc(CNC(=O)N[C@@H]2CCCC[C@@H]2C(=O)N2CC[C@@H]3[C@H](c4ccccc4)Nc4ccccc4[C@@H]32)cc1` [Example 144, N-(4-Methoxybenzyl)-N′-((1R,2S)-2-{[(3aR,4R,9bR)-4-phenyl-2,3,3a,4,5,9b-hexahydro-1H-pyrrolo[3,2-c]quinolin-1-yl]carbonyl}cyclohexyl)urea], under 10 nM; in that of `O=C(NCc1ccc(F)cc1)N[C@@H]1CCCC[C@@H]1C(=O)N1CC[C@@H]2[C@H](c3ccccc3)Nc3ccccc3[C@@H]21` [Example 145, N-(4-Fluorobenzyl)-N′-((1R,2S)-2-{[(3aR,4R,9bR)-4-phenyl-2,3,3a,4,5,9b-hexahydro-1H-pyrrolo[3,2-c]quinolin-1-yl]carbonyl}cyclohexyl)urea], under 10 nM.
